Test results taken from PubChem BioAssay AID493058 (The Scripps Research Institute Molecular Screening Center, 2011).
The source made the active and inactive calls.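 Rule for the calls: active = EC50 of 10 µM or lower; inactive = EC50 above 10 µM.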

Tested on: DHL10 Bax/Bak-deficient cells, cytotoxicity, MTS absorbance
Assay: cytotoxicity in Bax/Bak-deficient DHL10 cells, late-stage follow-up, counter-screen for MCL1-BIM inhibitor project, cell-based, MTS absorbance, EC50 (AID 493058)

SMILES	EC50
COC(=O)C1CCN(C(=O)c2cc(-c3ccco3)nc3ccccc23)CC1	> 25 µM (inactive)
CCc1nnc(NC(=O)c2cc(-c3ccco3)nc3ccccc23)s1	> 25 µM (inactive)
Cc1ccnc(NC(=O)c2cc(-c3ccc(C)o3)nc3ccccc23)c1	> 25 µM (inactive)
COCCN(C(=O)c1cc(-c2ccco2)nc2ccccc12)c1c(N)n(Cc2ccccc2)c(=O)[nH]c1=O	> 25 µM (inactive)
O=C(NC1CC1)c1cc(-c2ccco2)nc2ccccc12	> 25 µM (inactive)
COc1ccc(Cc2nnc(NC(=O)CCc3cccs3)s2)cc1OC	> 25 µM (inactive)
Cc1ccc(-c2cc(C(=O)Nc3ccccc3C(N)=O)c3ccccc3n2)o1	> 25 µM (inactive)
CC(=O)c1cccc(NC(=O)c2cc(-c3ccco3)nc3ccccc23)c1	> 25 µM (inactive)
COc1ccc(NC(=O)c2cc(-c3ccc(C)o3)nc3ccccc23)cc1	> 25 µM (inactive)
CC(=O)N1CCN(C(=O)c2cc(-c3ccc(C)o3)nc3ccccc23)CC1	> 25 µM (inactive)
O=C(CCn1nnc2ccccc21)Nc1nnc(Cc2ccc(F)cc2)s1	> 25 µM (inactive)
CN(C)C(CNC(=O)c1cc(-c2ccco2)nc2ccccc12)c1ccccc1 (stereo not drawn)	> 25 µM (inactive)
COc1ccc(Cc2nnc(NC(=O)Cc3csc4ccccc34)s2)cc1OC	> 25 µM (inactive)
COc1cccc(NC(=O)c2cc(-c3ccc(C)o3)nc3ccccc23)c1	> 25 µM (inactive)
COc1cccc(NC(=O)c2cc(-c3ccco3)nc3ccccc23)c1	> 25 µM (inactive)
COc1ccc(Cc2nnc(NC(=O)Cc3ccc(Oc4ccccc4)cc3)s2)cc1OC	> 25 µM (inactive)
CN(CC(=O)Nc1ccc(F)cc1)C(=O)c1cc(-c2ccco2)nc2ccccc12	> 25 µM (inactive)
Cc1ccc(-c2cc(C(=O)Nc3ccccn3)c3ccccc3n2)o1	> 25 µM (inactive)
CCOC(=O)C1CCCN(C(=O)c2cc(-c3ccco3)nc3ccccc23)C1 (stereo not drawn)	> 25 µM (inactive)

SMILES	EC50
COc1ccc(Cc2nnc(NC(=O)C(=O)c3ccco3)s2)cc1OC	> 25 µM (inactive)
CC(C)CCNC(=O)c1cc(-c2ccco2)nc2ccccc12	> 25 µM (inactive)
O=C(NC1CCC(O)CC1)c1cc(-c2ccco2)nc2ccccc12 (stereo not drawn)	> 25 µM (inactive)
COc1ccc(NC(=O)c2cc(-c3ccco3)nc3ccccc23)cc1S(=O)(=O)N1CCOCC1	> 25 µM (inactive)
COc1ccc(Cc2nnc(NC(=O)Cc3ccc4c(c3)OCO4)s2)cc1OC	> 25 µM (inactive)
CCOC(=O)c1cc(-c2ccco2)nc2c1c(C)nn2-c1cccc(Cl)c1	> 25 µM (inactive)
CCOC(=O)c1cc(-c2ccco2)nc2c1c(C)nn2-c1ccccc1	> 25 µM (inactive)
COc1ccc(Cc2nnc(NC(=O)Cc3cccs3)s2)cc1OC	> 25 µM (inactive)
COc1ccc(Cc2nnc(NC(=O)c3cc(-c4ccco4)nc4ccc(Br)cc34)s2)cc1OC	20 µM (inactive)
CCCCCCNC(=O)c1cc(-c2ccco2)nc2ccccc12	> 25 µM (inactive)
COc1ccc(NC(=O)c2cc(-c3ccc(C)o3)nc3ccccc23)c(OC)c1	> 25 µM (inactive)
Cc1ccnc(NC(=O)c2cc(-c3ccco3)nc3ccc(Br)cc23)c1	> 25 µM (inactive)
Cc1ccc2nc(NC(=O)c3cc(-c4ccco4)nc4ccccc34)sc2c1	> 25 µM (inactive)
COc1ccc(Cc2nnc(NC(=O)Cc3cccs3)s2)cc1	> 25 µM (inactive)
COc1ccc(Cc2nnc(NC(=O)Cc3ccncc3)s2)cc1OC	> 25 µM (inactive)
COc1ccc(CCNC(=O)c2cc(-c3ccco3)nc3ccccc23)cc1	> 25 µM (inactive)
COc1cccc(NC(=O)CN(C)C(=O)c2cc(-c3ccco3)nc3ccccc23)c1	> 25 µM (inactive)
COc1ccc(Cc2nnc(NC(=O)C3(c4ccccc4)CC3)s2)cc1OC	> 25 µM (inactive)
O=C(c1cc(-c2ccco2)nc2ccccc12)N1CCN(c2ccc(F)cc2)CC1	> 25 µM (inactive)
